Columns and labels:
PBMCs = assay: MTT assay, PBMCs from healthy donors; assay type: cell-based, human
Description: Peripheral blood mononuclear cells (PBMCs, line with the symbol □) were used to determine the specificities of the cytotoxic effects of Pomiferin. The survival curve of PBMC-average is from four different healthy donors. […]
MTT assay—The MTT assay was used to detect cell proliferation. Briefly, cells were plated in a 96-well plate at a density of 50,000 cells/well in 200 μl of culture medium with candidate drugs to be tested (DMSO as a negative control). The treated cells were incubated for four hours a 37° C. with a 5% CO2 incubator to allow dark crystals to form at the bottom of the wells. […] After aspirating the culture medium from each well, 100 μl of crystal dissolving solution was added to each well and incubated for 10 minutes at RT. The signal was quantified by measuring the absorbance in each sample at 570 nm using a microplate reader.

BXPC3 tumor = assay: PDAC BXPC3 xenograft model; assay type: in vivo, NSG mice
Description: For HCC or PDAC xenograft models, NSG mice 8-week-old) were injected subcutaneously with 1×10^6 HepG2 or BXPC3 tumor cells mixed with Matrigel.
To further test whether the tumor growth inhibition effect of NC5 applied to other solid tumors, the HCC-Sk-Hep1cell line and PDAC-BXPC3 cell line xenograft models were used. Subcutaneous injection of 1.5×10^6 SK-Hep1 or BXPC3 cells in NSG mice, Six-ten days after tumor cell injection, the palpable tumor in NSG mice was confirmed.

[1] = test system: PBNK cells killing activity towards SK-Hep1; assay: Cr51 release assay, PBNK killing of SK-Hep1; assay type: cell-based; conditions: 1 uM overnight
Description: PBNK cells were incubated with 1 uM NC5 or Compound III overnight, then cells were harvested for Cr51 release assay to check cell cytotoxicity. […] The star symbol indicates the significance of vehicle control vs. NC5 of the indicated E:T ratios. *p<0.05, **p<0.01, n=3.

SMILES: CC(C)=CCc1c2c(c3occ(-c4ccc(O)c(O)c4)c(=O)c3c1O)C=CC(C)(C)O2 [Pomiferin, 3′,4′,5-Trihydroxy-6″,6″-dimethyl-6-(3-methylbut-2-en-1-yl)-6″H-pyrano[2″,3″:7,8]isoflavone]
- cell proliferation (MTT) (PBMCs; 1 uM, 5 uM and 10 uM, 24 hours): no statistical difference
- IC50 (PBMCs; Homo sapiens, 72 h, MTT, three days, PBMC average of four healthy donors): > 18 µM
- sensitivity to Pomiferin (survival percentage, MTT) (PBMCs; five M Pomiferin for three days, compared with MDA-MD-231-LUC): more resistant to Pomiferin inhibition
- median survival (BXPC3 tumor; 5.0 μg/g oral, vehicle 37 days): 43.5 days
- tumor growth (BXPC3 tumor; Pomiferin administered orally): suppressed
- median survival, fold longer than vehicle control (BXPC3 tumor; mouse, in vivo): 1.2 fold
- PBNK cells killing activity (Cr51 release) [1]: increased PBNK cells killing activity
